Entries after “also recorded” stand apart in the source; their conditions may differ.
Key:
[1] = tested on: C57BL/6J inbred strain female mice; assay: Histologic spleen cellularity after whole body irradiation, hematoxylin-eosin sections (Example 7c); assay type: in vivo; conditions: 40 mg/kg i.p. 0.5 hour before 5 Gy (nonlethal); five days after irradiation
Experimental: Spleen cellularity is qualitatively assessed following whole body gamma irradiation in mice, with and without pretreatment with β-lapachone, as follows. β-lapachone is prepared at 10 mg/ml in 40% hydroxypropyl-beta-cyclodextrin (HPBCD). C57BL/6J inbred strain female mice (4-5 weeks old) are organized into three groups of six mice each: Group I mice receive no radiation, no β-lapachone, and no carrier; Group II mice receive radiation and are injected with carrier (40% HPBCD 4 ml/kg body weight); and Group III mice are injected intraperitoneally at 0.5 hour before irradiation with β-lapachone (40 mg/kg body weight). Whole body irradiation of animals with 8 Gy (lethal radiation) or 5 Gy (sublethal radiation) of γ-rays is carried out in air at room temperature in a gamma chamber (Gammacell 40 Exactor), with a dose-rate of 1.05 Gy/min. This radiation dose is within the range of equivalent human exposures predicted in many scenarios of radiologic or nuclear terrorist attack. Following irradiation, animals are maintained in a climate-controlled animal facility. Three mice in each of Groups I, II, and III are sacrificed on day five following irradiation, and an analysis of splenic cellularity is performed for each. […] Splenic cellularity is qualitatively assessed in sections stained with hematoxylin-eosin following standard procedures.

[2] = tested on: C57BL/6J inbred strain female mice; assay: Radiation-induced leukopenia after whole body irradiation, leukocyte count (Example 8); assay type: in vivo; conditions: for L % (percentage of lymphocytes) / M % (percentage of monocytes) / N % (percentage of neutrophils) / WBC: 40 mg/kg i.p. 0.5 hour before 8 Gy
Experimental: The effect of β-lapachone pre-treatment on radiation-induced leukopenia (e.g., radiation-induced neutropenia, monocytopenia, or lymphocytopenia, or subcombinations thereof) following whole body gamma irradiation in mice, with and without pretreatment with β-lapachone, is assessed as follows. β-lapachone is prepared at 10 mg/ml in 40% hydroxypropyl-beta-cyclodextrin (HPBCD). C57BL/6J inbred strain female mice (4-5 weeks old) are organized into three groups of six mice each: Group I mice receive no radiation, no β-lapachone, and no carrier; Group II mice receive radiation and are injected with carrier (40% HPBCD 4 ml/kg body weight); and Group III mice are injected intraperitoneally at 0.5 hour before irradiation with β-lapachone (40 mg/kg body weight). Whole body irradiation of animals with 8 Gy (lethal radiation) or 5 Gy (sublethal radiation) of γ-rays is carried out in air at room temperature in a gamma chamber (Gammacell 40 Exactor), with a dose-rate of 1.05 Gy/min. This radiation dose is within the range of equivalent human exposures predicted in many scenarios of radiologic or nuclear terrorist attack. Following irradiation, animals are maintained in a climate-controlled animal facility. Three mice in each of Groups I, II, and III are sacrificed on day five following irradiation, and an analysis of radiation-induced leukopenia is performed for each. The remaining mice are sacrificed on day eight following irradiation, and an analysis of radiation-induced leukopenia is performed for each. Leukocytes are counted automatically using a hemacytometer counter in the animal facility at MIT.

[3] = tested on: BRCA1 in human colon cancer cells (SW480); assay: Relative expression of cell cycle checkpoint genes, Human Cell-cycle Checkpoint GEArray Kit; assay type: cell-based; conditions: SW480, 2 μM, 4 hours, vs carrier alone
Experimental: Exponentially growing human colon cancer cells (SW480) are treated with β-lapachone at 2 μM, or carrier alone control, for 4 hours. Total RNA is prepared by Trizol reagents. Relative expression levels of multiple genes involved in cell cycle checkpoint are determined with the Human Cell-cycle Checkpoint GEArray Kit (SuperArray Inc. Bethesda, Md.) (FIG. 3). The up-regulation of the E2F1 target BRCA1 in β-lapachone treated cancer cells is another indication of E2F1 activation. BRCA1 is a tumor suppressor involved in many roles within the cell including DNA repair.

[4] = tested on: Chk2 in human cervical cancer cells (HeLa); assay: Chk2 phosphorylation by immunoblotting of whole cell lysates; assay type: cell-based; conditions: 4 μM
Experimental: Human cervical cancer cells (HeLa) are treated with 4 μM β-lapachone for 0, 3, 10, 30, 60 and 120 minutes. Whole cell lysates are prepared, separated by SDS-PAGE, and analyzed by immunoblotting with anti-Chk2 and anti-phosphorylated-Chk2 antibodies.

[5] = tested on: C57BL/6J inbred strain female mice; assay: Survival after 8 Gy whole body γ-irradiation, intraperitoneal dosing 4 hours before or after (Example 4); assay type: in vivo; conditions: for No. of animals surviving at 20 days post-irradiation: 4 animals; for Death rate (%): 20 days
Experimental: β-lapachone is prepared at 10 mg/ml in 40% hydroxypropyl-beta-cyclodextrin (HPBCD).
C57BL/6J inbred strain female mice (4-5 weeks old) are used. Animals are maintained in a climate-controlled animal facility.
Animals are injected with different concentrations of β-lapachone (20 and 40 mg/kg body weight) intraperitoneally 4 hours before or after irradiation.
Whole body irradiation of animals with 8 Gy of γ-rays is carried out in air at room temperature in a gamma chamber (Gammacell 40 Exactor), at a dose-rate of 1.05 Gy/min. This radiation dose is within the range of equivalent human exposures predicted in many scenarios of radiologic or nuclear terrorist attack.
Mice are divided into the following groups (each Group comprises four mice receiving identical treatment):
Group II: Mice are injected with β-lapachone 20 mg/kg body weight 4 hours before radiation.
Group III: Mice are injected with β-lapachone 40 mg/kg body weight 4 hours before radiation.
Group IV: Mice are injected with β-lapachone 20 mg/kg body weight 4 hours after radiation.
Group V: Mice are injected with β-lapachone 40 mg/kg body weight 4 hours after radiation.
Group VI: Mice are injected with amifostine 10 mg/kg body weight 4 hours before radiation.
Animals are irradiated with 8 Gy at 1.05 Gy/min dose-rate. After irradiation mice are returned to their cage and observed on a regular basis. Exposure to γ-rays causes lethality in animals. Importantly, treatment with β-lapachone, especially at a level of 40 mg/kg prior to irradiation, diminishes the death rate.

[6] = 20 mg/kg i.p. 4 hr after Radiation 8 Gy
[7] = 20 mg/kg i.p. 4 hr before Radiation 8 Gy
[8] = 40 mg/kg i.p. 4 hr before Radiation 8 Gy
[9] = Radiation 8 Gy 4 hr → 20 mg/kg as printed (second such line of Table 1)

CC1(C)CCC2=C(O1)c1ccccc1C(=O)C2=O [β-lapachone, 3,4-dihydro-2,2-dimethyl-2H-naphtho[1,2-b]pyran-5,6-dione] was tested, and the “Spleen structure and cellularity judged histologically (FIG. 10)” value [1] was “protective effect on spleen structure and cellularity”, the “L % (percentage of lymphocytes)” value ([2]; Day 5) was 66.24% and the “M % (percentage of monocytes)” value ([2]; Day 5) was 8.13%. The “N % (percentage of neutrophils)” value ([2]; Day 5) was 19.1%, the WBC ([2]; Day 5) was 0.53 ± 0.4 1000 cells/ml and the “L % (percentage of lymphocytes)” value ([2]; Day 8) was 52.69%. The “M % (percentage of monocytes)” value ([2]; Day 8) was 13.23%, the “N % (percentage of neutrophils)” value ([2]; Day 8) was 20.29% and the WBC ([2]; Day 8) was 0.37 ± 0.24 1000 cells/ml. The “Protection against radiation-induced neutropenia, monocytopenia, and lymphocytopenia” value ([2]; pretreatment, 8 Gy, day 5 and day 8, P<0.05) was “partially protects”, the “BRCA1 relative expression level” value [3] was “induces increased expression; also recorded: up-regulation” and the “Time at which phosphorylated Chk2 levels appear” value [4] was 10 min. For the same compound, the “Phosphorylated Chk2 (p-Chk2) level / proportion of phosphorylated Chk2” value ([4]; 0-120 minutes) was “induces an increase in the proportion of phosphorylated Chk2; also recorded: sustained increase”, the “Total amount of Chk2 within the cells” value ([4]; 0-120 minutes) was “remains unchanged” and the “Median survival time” value [5, 6] was 14 days. For the same compound, the “No. of animals surviving at 20 days post-irradiation” value (“No. of animals surviving” for short) [5, 6] was 1, the “Death rate (%)” value [5, 6] was 75% and the “Median survival time” value [5, 7] was 13.5 days. The “No. of animals surviving” value [5, 7] was 0, the “Death rate (%)” value [5, 7] was 100% and the “Median survival time” value ([5]; 40 mg/kg i.p. 4 hr after Radiation 8 Gy) was 16.4 days. For the same compound, the “Median survival time” value [5, 8] was 25 days, the “No. of animals surviving” value [5, 8] was 3 and the “Death rate (%)” value [5, 8] was 25%. The “Temporal survival pattern (FIG. 5)” value ([5]; 20, 40 mg/kg i.p., 4 hours before or after 8 Gy, vs control decline at 10-14 days) was “delayed this early decline in survival”, the “No. of animals surviving” value [5, 9] was 0 and the “Death rate (%)” value [5, 9] was 100%.
